Data reported in patent US5512549A, “Glucagon-like insulinotropic peptide analogs, compositions, and methods of use” (Eli Lilly and Company, priority 1994, dated 1996).

Legend:
beagles = assay: Dog I.V. Hyperglycemic (150 mg/dl) Clamp Test; type: in vivo; conditions: I.V. 1.0 μg/kg
Protocol: a) Hyperglycemic Clamp Studies
Experiments were conducted in overnight-fasted, conscious, adult (1-2 years of age) male and female beagles weighing 8-15 kg. At least ten days prior to the study, animals were anesthetized with isoflurane, and a cut-down was made in the left or right inguinal region. Silastic catheters were inserted into the femoral artery and the proximal caudal femoral vein and secured with 4-0 silk suture. The free ends of the catheters were passed subcutaneously to the back using a trocar needle. The catheters were then filled with a glycerol/heparin solution (3:1, v/v; final heparin concentration of 250 KIU/ml), and the free ends were knotted and placed in a subcutaneous pocket to allow complete closure of the skin. Keflex® was administered both pre-operatively (20 mg/kg, IV and 20 mg/kg, I.M.) and post-operatively (250 mg, p.o. once daily for seven days) to prevent infections. Torbugesic (1.5 mg/kg, I.M.) was administered post-operativelyto control pain.
Blood was drawn just prior to the study day to determine the health of the animal. Only animals with hematocrits above 38% and leukocyte counts below 16,000/mm^3 were used.
The afternoon before the experiment, the free ends of the catheters were exteriorized from the subcutaneous pocket through a small incision made under local anesthesia (2% lidocaine), and the dog was fitted with a tether system jacket and collar assembly.
The morning of the experiment, the contents of the catheters were aspirated, the catheters were flushed with saline, and extension lines (protected by a stainless steel tether) were attached to the catheters. On mornings of IV injection experiments, an over-the-needle, teflon catheter was inserted percutaneously into a cephalic vein in preparation for the administration of an IV bolus of test substance. The dog was placed in a metabolic cage, and the catheter extension lines and tether were attached to a swivel system to allow the dog to move freely about the cage. At this time (-60 minutes), an exogenous infusion of glucose (50% w/v in water) was begun through the chronic venous catheter. Glucose was infused in a descending stepwise fashion over the first six minutes of the study to rapidly raise the plasma glucose concentration to 150 mg/dl. Plasma glucose concentrations were determined every 2.5 to 7.5 minutes throughout the remainder of the study, and the glucose infusion rate was adjusted appropriately to maintain the plasma glucose concentration at 150 mg/dl.
Sixty minutes after the start of the glucose infusion (time 0), test substance was administered either intravenously (1.0, 2.9, 5.0 or 10.0 μg/kg; dose dissolved in 2 ml of saline containing 0.3% dog albumin, w/v) through the previously inserted teflon catheter or subcutaneously (10 μg/kg; 150 μM in phosphate buffered saline) in the dorsal aspect of the neck.
Arterial blood samples (3.5 ml) were taken at -30, -15, 0, 2.5, 5, 7.5, 10, 12.5, 15, 20, 30, 45, 60, 75, 90, 105 and 120 minutes during the IV studies and at -30, -15, 0, 3, 6, 9, 12, 15, 20, 30, 45, 60, 75, 90, 105 and 120 minutes during the SC studies. Samples were collected in vacuum blood collection tubes containing disodium EDTA and immediately placed on ice. To prevent proteolytic cleavage of GLP-1(7-37) in the plasma samples, 1.5 ml of the EDTA containing blood were transferred to a polypropylene tube containing 40 μl of aprotinin (10,000 KIU/ml) and mixed well. The samples were centrifuged, and the resulting plasma was transferred to polypropylene test tubes and stored on ice for the duration of the study.
At the conclusion of the experiment, the animal was anesthetized (isoflurane); the catheters were flushed with fresh saline and filled with the glycerol/heparin mixture; the free ends of the catheters were knotted and placed subcutaneously as described earlier; and antibiotic was administered (300 mg Keflex®, I.M.). […]

[1] = tested on: Sprague Dawley or Zucker Diabetic Fatty rats; assay: Rat IV Glucose (1 g/kg) Tolerance Test; type: in vivo; conditions: for Insulin Change AUC: 0-15 min
Protocol: a) Glucose Tolerance Tests
Experiments were conducted in overnight-fasted, conscious, male Sprague Dawley (Charles River) or Zucker Diabetic Fatty (Genetic Models, Inc.) rats weighing approximately 250 (Sprague Dawley rats) or 300 (Zucker Diabetic Fatty rats) grams. Four to five days prior the study, rats were anesthetized with isoflurane, and a polyethylene (PE50) catheter was inserted into the right jugular vein. The catheter was secured with a wound clip, filled with saline containing heparin (2% sodium heparin), and closed with a small stainless steel plug.
After a sixteen-hour fast, twelve chronically cannulated rats were separated into four groups of three rats per group. 0.4 ml of blood was taken from the tail vein, collected into a microtainer tube containing lithium heparin, and immediately placed on ice (zero minute sample). A glucose bolus (1.0 g/kg; 50% glucose (w/v) in water) was administered via the indwelling jugular cannula, and the cannula was rinsed with 200 μl of saline. Twenty seconds later a bolus of test substance 100 μl/100 g body weight of either vehicle (saline containing 0.3% (w/v) bovine serum albumin) or vehicle containing analog! was administered through the jugular cannula, and the cannula was rinsed as before. Rats were bled from the tail again at 2, 5, 10, 20 and 30 minutes after the administration of the glucose bolus, and the samples were treated as described above. At the end of the experiment, blood samples were centrifuged, and the plasma was collected.
Plasma glucose concentrations were determined the day of the experiment using a coupled hexokinase procedure in a clinical chemistry analyzer. Plasma for insulin determinations were diluted with zero calibrator and frozen at -20° C. until time for analysis. Insulin concentrations were determined using a commercial radioimmunoassay kit with rat insulin as the standard.
Insulin change (the change in insulin from the baseline value) was calculated as the difference between the insulin concentration at time t and the insulin concentration at zero time. The area under the insulin change curve was calculated using the trapezoidal rule. Plasma glucose change (the increase in plasma glucose above the baseline value) was calculated as the difference between the plasma glucose concentration at time t and the plasma glucose concentration at zero time. The area under the plasma glucose change curve was calculated using the trapezoidal rule. Values are listed as the mean ± the standard error of the mean (SEM).

Row | Substance | GIR Change AUC (beagles; 0-60 min, mean ± SEM) [mg/kg] | Insulin Change AUC (beagles; 0-60 min, mean ± SEM) [ng·min/mL] | Max Insulin Change (beagles; 120 minute test period, mean ± SEM) [ng/mL] | Duration of Insulin Effect (beagles; time average insulin change consistently ≥0.5 ng/ml) [min] | Insulin Change at 10 min ([1]; IV dose 0.6 mg/kg) [ng/mL] | Max Insulin Change ([1]; IV dose 0.6 mg/kg) [ng/mL] | Insulin Change AUC ([1]; IV dose 0.6 mg/kg) [ng·min/mL] | Insulin Change at 10 min ([1]; IV dose 1.2 mg/kg) [ng/mL] | Max Insulin Change ([1]; IV dose 1.2 mg/kg) [ng/mL] | Insulin Change AUC ([1]; IV dose 1.2 mg/kg) [ng·min/mL] | Insulin Change at 10 min ([1]; IV dose 0.92 mg/kg) [ng/mL] | Max Insulin Change ([1]; IV dose 0.92 mg/kg) [ng/mL] | Insulin Change AUC ([1]; IV dose 0.92 mg/kg) [ng·min/mL]
1 | Lys^34 -N^ε -octanoyl-GLP-1(7-37)OH [Lys^34-N^ε-octanoyl-GLP-1(7-37)OH] | 463 ± 12 | 50 ± 2 | 3.8 ± 1.0 | 15 | 1.3 | 5.0 | 33 ± 8 | 10.0 | 13.1 | 136 ± 30 | – | – | –
2 | GLP-1(7-37)OH | – | – | – | – | 5.4 | 7.8 | 79 ± 8 | 4.2 | 8.4 | 77 ± 17 | 3.5 | 8.4 | 75 ± 12
